Assay results from US9635853B2, “Insecticidal compounds” (Syngenta Participations AG, priority 2013, dated 2017).

Key:
Assay type in all cases: in vivo
Spodoptera littoralis = Spodoptera littoralis (Egyptian cotton leafworm) leaf disc test; conditions: foliar, 72 h, 200 ppm sprayed on cotton leaf discs, L1 larvae, mortality, feeding behavior, growth regulation 3 DAT
From the text: Spodoptera littoralis (Egyptian cotton leafworm): Cotton leaf discs were placed on agar in a 24-well microtiter plate and sprayed with test solutions at an application rate of 200 ppm. After drying, the leaf discs were infested with 5 L1 larvae. The samples were checked for mortality, feeding behavior, and growth regulation 3 days after treatment (DAT).

Tetranychus urticae = Tetranychus urticae (Two-spotted spider mite) leaf disc test; conditions: foliar, 192 h, 200 ppm sprayed on bean leaf discs, mite populations of mixed ages, 8 days, egg, larval and adult mortality
From the text: Tetranychus urticae (Two-spotted spider mite): Bean leaf discs on agar in 24-well microtiter plates were sprayed with test solutions at an application rate of 200 ppm. After drying, the leaf discs are infested with mite populations of mixed ages. 8 days later, discs are checked for egg mortality, larval mortality, and adult mortality.

Thrips tabaci = Thrips tabaci (Onion thrips) leaf disc test; conditions: foliar, 168 h, 200 ppm sprayed on sunflower leaf discs, population of mixed ages, 7 days, mortality
Experimental: Thrips tabaci (Onion thrips): Sunflower leaf discs were placed on agar in a 24-well microtiter plate and sprayed with test solutions at an application rate of 200 ppm. […] After an incubation period of 7 days, samples were checked for mortality.

Myzus persicae = Myzus persicae (Green peach aphid) leaf disc test; conditions: foliar, 144 h, 200 ppm sprayed on sunflower leaf discs, aphid population of mixed ages, 6 DAT, mortality
Experimental: Myzus persicae (Green peach aphid): Sunflower leaf discs were placed on agar in a 24-well microtiter plate and sprayed with test solutions at an application rate of 200 ppm. After drying, the leaf discs were infested with an aphid population of mixed ages. After an incubation period of 6 DAT, samples were checked for mortality.

Heliothis virescens = Heliothis virescens (Tobacco budworm) egg/artificial diet test; conditions: 96 h, 200 ppm (concentration in well 18 ppm), eggs on artificial diet, 4 days, egg mortality, larval mortality, growth regulation
Experimental: Heliothis virescens (Tobacco budworm): Eggs (0-24 h old) were placed in 24-well microtiter plate on artificial diet and treated with test solutions at an application rate of 200 ppm (concentration in well 18 ppm) by pipetting. After an incubation period of 4 days, samples were checked for egg mortality, larval mortality, and growth regulation.

Plutella xylostella = Plutella xylostella (Diamond back moth) artificial diet test; conditions: 144 h, 200 ppm (concentration in well 18 ppm), L2 larvae, 6 days, larval mortality and growth regulation
Experimental: Plutella xylostella (Diamond back moth): 24-well microtiter plate (MTP) with artificial diet was treated with test solutions at an application rate of 200 ppm (concentration in well 18 ppm) by pipetting. After drying, the MTP's were infested with L2 larvae (7-12 per well). After an incubation period of 6 days, samples were checked for larval mortality and growth regulation.

Diabrotica balteata = Diabrotica balteata (Corn root worm) artificial diet test; conditions: 120 h, 200 ppm (concentration in well 18 ppm), L2 larvae, 5 days, larval mortality and growth regulation
Experimental: Diabrotica balteata (Corn root worm): A 24-well microtiter plate (MTP) with artificial diet was treated with test solutions at an application rate of 200 ppm (concentration in well 18 ppm) by pipetting. After drying, the MTP's were infested with L2 larvae (6-10 per well). After an incubation period of 5 days, samples were checked for larval mortality and growth regulation.

Measured: pest or weed control at 200 ppm

CCN(C(=O)c1ccncc1)c1cccc(C(=O)Nc2c(Br)cc(C(F)(C(F)(F)F)C(F)(F)F)cc2C2CC2)c1F [Compound 15]
≥ 80%: all assays above

CCN(C(=O)c1cc[n+]([O-])cc1)c1cccc(C(=O)Nc2c(Br)cc(C(F)(C(F)(F)F)C(F)(F)F)cc2C2CC2)c1F [Compound 16]
≥ 80%: all assays above

CCN(C(=O)c1cc[n+]([O-])cc1)c1cccc(C(=O)Nc2c(Br)cc(C(F)(C(F)(F)F)C(F)(F)F)cc2OC(F)F)c1F [Compound 17]
≥ 80%: all assays above
